molecular target: T1, histamine 3 receptor (H3R) (Homo sapiens, UniProt Q9Y5N1); assay: Binding assay with 3H-(R)α-methylhistamine (competition binding, human HR3-CHO membranes); settings: competition against 3H(R)α-Methylhistamine (1 nM = Kd), membrane of the human HR3-CHO cell line; Ki calculated from IC50 by Cheng-Prusoff
T1 construct: expressed in transfected cells; host or cells: CHO cells (HR3-CHO cell line), membrane preparation
Description: Binding Assay with ^3H-(R)α-methylhistamine
Saturation binding experiments were performed using HR3-CHO membranes prepared as described in Takahashi, K, Tokita, S., Kotani, H. (2003) J. Pharmacol. Exp. Therapeutics 307, 213-218.
An appropriate amount of membrane (60 to 80 μg protein/well) was incubated with increasing concentrations of ^3H(R)α-Methylhistamine di-hydrochloride (0.10 to 10 nM). Non specific binding was determined using a 200 fold excess of cold (R)α-Methylhistamine dihydrobromide (500 nM final concentration). The incubation was carried out at room temperature (in deep-well plates shaking for three hours). The final volume in each well was 250 μl. The incubation was followed by rapid filtration on GF/B filters (pre-soaked with 100 μl of 0.5% PEI in Tris 50 mM shaking at 200 rpm for two hours). The filtration was made using a cell-harvester and the filter plates were then washed five times with ice cold washing buffer containing 0.5 M NaCl. After harvesting, the plates were dried at 55° C. for 60 min, then we added scintillation fluid (Microscint 40, 40 microl in each well) and the amount of radioactivity on the filter was determined in Packard top-counter after shaking the plates for two hours at 200 rpm at room temperature.
Binding Buffer: 50 mM Tris-HCl pH 7.4 and 5 mM MgCl2x6H2O pH 7.4. Washing Buffer: 50 mM Tris-HCl pH 7.4 and 5 mM MgCl2x6H2O and 0.5 M NaCl pH 7.4.
Indirect measurement of affinity of H3R inverse agonists: twelve increasing concentrations (ranging from 10 μM to 0.3 nM) of the selected compounds were always tested in competition binding experiments using membrane of the human HR3-CHO cell line. An appropriate amount of protein, e.g. approximately 500 cpm binding of RAMH at Kd, were incubated for 1 hour at room temperature in 250 μl final volume in 96-well plates in presence of ^3H(R)α-Methylhistamine (1 nM final concentration=Kd). […]
All compounds were tested at a single concentration in duplicates. […] Ki's were calculated from IC50 based on Cheng-Prusoff equation (Cheng, Y, Prusoff, W H (1973) Biochem Pharmacol 22, 3099-3108).

T1 sequence (Q9Y5N1 whole entry): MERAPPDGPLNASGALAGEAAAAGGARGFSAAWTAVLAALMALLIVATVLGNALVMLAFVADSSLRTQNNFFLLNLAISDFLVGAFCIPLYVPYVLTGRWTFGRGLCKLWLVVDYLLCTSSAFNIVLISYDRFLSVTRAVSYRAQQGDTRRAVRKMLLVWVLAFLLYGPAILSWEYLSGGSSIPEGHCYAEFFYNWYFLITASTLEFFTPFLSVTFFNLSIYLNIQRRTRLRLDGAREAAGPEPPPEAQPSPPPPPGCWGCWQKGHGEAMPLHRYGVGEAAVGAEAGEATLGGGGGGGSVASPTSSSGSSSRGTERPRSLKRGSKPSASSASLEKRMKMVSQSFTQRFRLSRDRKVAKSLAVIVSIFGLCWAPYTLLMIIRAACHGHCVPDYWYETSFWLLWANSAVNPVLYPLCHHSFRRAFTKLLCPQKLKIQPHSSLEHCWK

| Ki | SMILES |
| --- | --- |
| 0.039 µM | CCN1CCN(c2ccc(NC(=O)NCc3ccccc3)cn2)CC1 [Example 3, 1-benzyl-3-[6-(4-ethyl-piperazin-1-yl)-pyridin-3-yl]-urea] |
| 0.081 µM | CN(C)S(=O)(=O)Nc1ccc(N2CCN(C3CCCC3)CC2)nc1 [Example 34, N-[6-(4-cyclopentyl-piperazin-1-yl)-pyridin-3-yl]-diemethylaminosulfonamide] |
| 0.04 µM | COc1ccc(CC(=O)Nc2ccc(N3CCN(C4CCCC4)CC3)nc2)cc1OC [Example 53, N-[6-(4-cyclopentyl-piperazin-1-yl)-pyridin-3-yl]-2-(3,4-dimethoxy-phenyl)-acetamide] |
